Consider 1 compound from patent publication US11970458B1, “4,5-bis(4-bromophenyl)-1-hexyl-2-(4-nitrophenyl)-1H-imidazole as an antimicrobial compound” (KING FAISAL UNIVERSITY, priority 2023, dated 2024).

Molecules are shown by their SMILES.

In series [1] the test system is Candida albicans. In words: antimicrobial screening by agar dilution. It is filed as cell-based. Conditions: after 10, 20, 40 and 60 minutes at all dilutions 1:100, 1:200, 1:400, 1:800. How it is done:
(§1) The antimicrobial properties of the 4,5-bis(4-bromophenyl)-1-hexyl-2-(4-nitrophenyl)-1H-imidazole was studied by the method of agar dilution. Test solutions of each compound was prepared in concentration of 1% using dimethylformamide as a solvent then they were diluted in physiological solution to obtain the final experimental dilutions 1:100, 1:200, 1:400, 1:800. The effect of these substances were compared with furacillin in a controlled study. The testing microbes used were gram positive bacteria Staphylococcus aureus, gram negative bacteria Pseudomonas aeruginosa and Escherichia coli and Candida albicans fungi were taken. The experiments used for this survey were meat-pentonlu agar (EPA) for cultivation of bacteria and Saburo environment for fungi. Each experiment used 1 ml of test solution on each plate 500 min. Add 2 drops of emulsified with microbes feel. All experimental samples were taken from the agar after 10, 20, 40, 60 minutes in the environment on the basis of Patrk planted. Bacteria were cultivated at a temperature of 37° C. for 1 day and the mushroom was kept in a thermostat for […] at a temperature of 28° C. Then results were checked.
A general note: Agar dilution tests growth on a series of plates holding different concentrations.

In series [2] the test system is Escherichia coli. Briefly: antimicrobial screening by agar dilution. It is filed as cell-based. Conditions: after 10, 20, 40 and 60 minutes at all dilutions 1:100, 1:200, 1:400, 1:800. The method, then: as §1
The subject of series [3] is Pseudomonas aeruginosa. In words: antimicrobial screening by agar dilution. In kind it is cell-based. Conditions: after 10, 20, 40 and 60 minutes at all dilutions 1:100, 1:200, 1:400, 1:800. How it is done:
as §1

Series [4] deals with Staphylococcus aureus. Briefly: antimicrobial screening by agar dilution. It is filed as cell-based. Conditions: after 10, 20, 40 and 60 minutes at all dilutions 1:100, 1:200, 1:400, 1:800. The method, then:
as §1

The term melting point denotes the temperature, or range, at which the solid turns liquid. In turn, `CCCCCCn1c(-c2ccc([N+](=O)[O-])cc2)nc(-c2ccc(Br)cc2)c1-c1ccc(Br)cc1` [4,5-bis(4-bromophenyl)-1-hexyl-2-(4-nitrophenyl)-1H-imidazole] gave a melting point of 160 to 161 °C. The inhibition activity result in series [1] is recorded as “highest inhibition activity”. For the same compound, the inhibition activity result in series [2] is recorded as “highest inhibition activity”. In series [3], the inhibition activity result is recorded as “highest inhibition activity”. In addition, in series [4], the inhibition activity entry is on record as “highest inhibition activity”.
